How the values were obtained:
[1] = tested on: HCT-116; assay: Antiproliferative activity against human HCT116 cells after 72 hrs by MTT assay; assay type: functional, cell-based; conditions: HCT-116, 72 h
[2] = tested on: SK-OV-3; assay: Antiproliferative activity against human SKOV3 cells after 72 hrs by MTT assay; assay type: functional, cell-based; conditions: SK-OV-3, 72 h
[3] = tested on: WI-38; assay: Cytotoxicity against human WI38 cells after 72 hrs by MTT assay; assay type: cell-based; conditions: WI-38, 72 h
[4] = tested on: MDA-MB-231; assay: Antiproliferative activity against human MDA-MB-231 cells after 72 hrs by MTT assay; assay type: functional, cell-based; conditions: MDA-MB-231, 72 h

Structure (SMILES) | IC50 [1] [µM] | IC50 [2] [µM] | IC50 [3] [µM] | IC50 [4] [µM]
O=C(CCc1cccc2c1B(O)OC2)NCCc1ccccc1 | > 100 | > 100 | > 100 | > 100
O=C(CCc1cccc2c1B(O)OC2)Nc1cccc(-c2ccc(C(F)(F)F)cc2)c1 | 0.55 | 0.5 | 26 | 0.51
COc1cc(OC)cc(-c2cccc(NC(=O)CCc3ccccc3)c2)c1 | > 100 | > 100 | > 100 | 87
Cc1cc(C)c(NC(=O)CCc2cccc3c2B(O)OC3)c(C)c1 | 64 | 19 | 74 | 71
CC(C)(C)OC(=O)NCc1ccc(NC(=O)CCc2cccc3c2B(O)OC3)cc1 | 2.3 | 2 | 4.8 | 1.3
COc1cc(OC)cc(-c2cccc(NC(=O)CCc3cccc4c3B(O)OC4)c2)c1 | 0.053 | 0.044 | 1.7 | 0.04
O=C(CCc1cccc2c1B(O)OC2)Nc1cccc(-c2ccc(OC(F)(F)F)cc2)c1 | 0.73 | 0.56 | 25 | 0.64
O=C(CCc1cccc2c1B(O)OC2)Nc1cccc2ccccc12 | 0.2 | 0.17 | 1.2 | 0.15
O=C(CCc1ccccc1)Nc1ccccc1 | > 100 | > 100 | > 100 | > 100
CCOC(=O)c1ccc(NC(=O)CCc2cccc3c2B(O)OC3)cc1 | > 100 | > 100 | > 100 | > 100
COc1cc(OC)cc(-c2cccc(NC(=O)CCc3cccc4c3COB4O)c2)c1 | 50 | 88 | > 100 | 93
CC(=O)c1cccc(-c2cccc(NC(=O)CCc3cccc4c3B(O)OC4)c2)c1 | 0.086 | 0.068 | 2.2 | 0.052
Cc1ccc(NC(=O)CCc2cccc3c2B(O)OC3)cc1Br | 1.2 | 0.6 | 15 | 0.87
O=C(CCc1cccc2c1B(O)OC2)Nc1ccc(I)cc1 | 50 | 51 | 49 | 33
COc1cccc(-c2cccc(NC(=O)CCc3ccc4c(c3)B(O)OC4)c2)c1 | 21 | 62 | > 100 | 49
O=C(CCc1cccc2c1C(O)OC2)Nc1ccccc1 (centres undefined) | 22 | 78 | 42 | 12
N#Cc1cccc(-c2cccc(NC(=O)CCc3cccc4c3B(O)OC4)c2)c1 | 0.14 | 0.12 | 7.3 | 0.11
O=C(CCc1cccc2c1B(O)OC2)Nc1cccc(-c2cccc(OC(F)(F)F)c2)c1 | 0.31 | 0.46 | 9.8 | 0.46
O=C(CCc1cccc2c1B(O)OC2)Nc1ccccc1-c1ccccc1 | 23 | 26 | 77 | 18
COc1cccc(-c2cccc(NC(=O)CCc3cccc4c3C(O)OC4)c2)c1 (centres undefined) | 49 | 61 | 93 | 52
COc1cc(OC)cc(-c2cccc(NC(=O)CCc3ccc4c(c3)COB4O)c2)c1 | 56 | 93 | > 100 | 77

Structure (SMILES) | IC50 [1] [µM] | IC50 [2] [µM] | IC50 [3] [µM] | IC50 [4] [µM]
C#Cc1ccccc1NC(=O)CCc1cccc2c1B(O)OC2 | 1.4 | 0.82 | 18 | 1.3
CCNC(=O)CCc1cccc2c1B(O)OC2 | > 100 | > 100 | > 100 | > 100
O=C(CCc1cccc2c1B(O)OC2)NCc1ccccc1 | > 100 | > 100 | > 100 | > 100
CC(C)(C)c1ccc(NC(=O)CCc2cccc3c2B(O)OC3)cc1 | 19 | 4.2 | 55 | 33
Cc1ccc(NC(=O)CCc2cccc3c2B(O)OC3)cc1 | 4.5 | 0.86 | > 100 | 1.1
O=C(CCc1cccc2c1B(O)OC2)Nc1cccc(-c2cccc(C(F)(F)F)c2)c1 | 0.58 | 0.39 | 23 | 0.41
COc1cccc(-c2cccc(NC(=O)CCc3cccc4c3COB4O)c2)c1 | 46 | 78 | > 100 | 76
COc1ccc(-c2cccc(NC(=O)CCc3cccc4c3B(O)OC4)c2)cc1 | 0.16 | 0.048 | 1.4 | 0.088
CC(=O)c1ccc(-c2cccc(NC(=O)CCc3ccc4c(c3)B(O)OC4)c2)cc1 | 19 | > 100 | > 100 | 59
OB1OCc2cc(F)ccc21 [TAVABOROLE] | 65 | > 100 | 32 | > 100
COc1ccccc1NC(=O)CCc1cccc2c1B(O)OC2 | 0.43 | 0.2 | 1.6 | 0.93
CC(=O)c1ccc(-c2cccc(NC(=O)CCc3ccc4c(c3)COB4O)c2)cc1 | 63 | 79 | > 100 | 66
COc1cccc(-c2cccc(NC(=O)CCc3ccccc3)c2)c1 | 40 | 24 | > 100 | 25
N#Cc1ccc(-c2cccc(NC(=O)CCc3cccc4c3B(O)OC4)c2)cc1 | 0.41 | 0.34 | 12 | 0.38
C#Cc1ccc(NC(=O)CCc2cccc3c2B(O)OC3)cc1 | 45 | 6.3 | > 100 | 6.6
O=C(CCc1cccc2c1B(O)OC2)Nc1cccc(-c2ccc(Cl)cc2)c1 | 0.38 | 0.22 | 9.8 | 0.26
O=C(CCc1cccc2c1B(O)OC2)Nc1nccs1 | > 100 | > 100 | > 100 | > 100
O=C(CCc1cccc2c1B(O)OC2)Nc1cccc(I)c1 | 2.3 | 0.63 | 71 | 5.3
COc1cccc(-c2cccc(NC(=O)CCc3ccc4c(c3)COB4O)c2)c1 | 81 | > 100 | > 100 | 90
O=C(O)CCc1cccc2c1B(O)OC2 | > 100 | > 100 | > 100 | > 100
O=C(CCc1cccc2c1B(O)OC2)Nc1ccc(Br)cc1 | 46 | 9.2 | 42 | 5.3

Structure (SMILES) | IC50 [1] [µM] | IC50 [2] [µM] | IC50 [3] [µM] | IC50 [4] [µM]
O=C(CCc1cccc2c1B(O)OC2)Nc1ccc(Cl)cc1 | 12 | 5 | > 100 | 3.6
COc1ccc(NC(=O)CCc2cccc3c2B(O)OC3)cc1OC | > 100 | > 100 | > 100 | > 100
OB1OCc2ccccc21 [BENZOXABOROLE] | > 100 | > 100 | 58 | > 100
CC(=O)c1ccc(-c2cccc(NC(=O)CCc3cccc4c3COB4O)c2)cc1 | 48 | 57 | > 100 | 41
O=C(CCc1cccc2c1B(O)OC2)Nc1ccc(-c2ccccc2)cc1 | 13 | 48 | 32 | 8.8
O=C(CCc1cccc2c1B(O)OC2)Nc1ccc(F)cc1 | 0.65 | 0.72 | 12 | 0.44
O=C(CCc1cccc2c1B(O)OC2)Nc1ccc([N+](=O)[O-])cc1 | > 100 | 83 | > 100 | 36
CC(C)(C)OC(=O)Nc1ccc(NC(=O)CCc2cccc3c2B(O)OC3)cc1 | 24 | > 100 | > 100 | 29
O=C(CCc1cccc2c1B(O)OC2)Nc1cccc(Br)c1 | 1.4 | 0.54 | 20 | 0.72
COc1ccc(NC(=O)CCc2cccc3c2B(O)OC3)cc1 | 1.7 | 0.9 | > 100 | 0.85
O=C(CCc1cccc2c1B(O)OC2)NC1CCCCC1 | > 100 | > 100 | > 100 | > 100
CSc1cccc(-c2cccc(NC(=O)CCc3cccc4c3B(O)OC4)c2)c1 | 0.11 | 0.15 | 2 | 0.15
CC(C)c1cccc(NC(=O)CCc2cccc3c2B(O)OC3)c1 | 1.6 | 0.51 | 22 | 1.6
O=C(CCc1cccc2c1B(O)OC2)Nc1ccc2ccccc2c1 | 1.7 | 1.4 | > 100 | 1.8
CC(C)(C)NC(=O)CCc1cccc2c1B(O)OC2 | > 100 | > 100 | > 100 | > 100
O=C(CCc1cccc2c1B(O)OC2)Nc1cccc(-c2cccc(F)c2)c1 | 0.46 | 0.48 | 37 | 0.57
CC(=O)c1ccc(-c2cccc(NC(=O)CCc3ccccc3)c2)cc1 | 4 | 3.2 | 13 | 2.7
CC(=O)c1ccc(-c2cccc(NC(=O)CCc3cccc4c3C(O)OC4)c2)cc1 (centres undefined) | 18 | 41 | > 100 | 29
CSc1ccc(-c2cccc(NC(=O)CCc3cccc4c3B(O)OC4)c2)cc1 | 0.18 | 0.14 | 3.8 | 0.14

— ChEMBL document CHEMBL4364293, “Design, Synthesis, and Structure-Activity Relationship of 7-Propanamide Benzoxaboroles as Potent Anticancer Agents” (J Med Chem, 2019)
